In assay [1] the target is T1, Steroid 5-alpha-reductase (Rattus norvegicus, UniProt P24008+P31214).
T1 sequence (P24008 whole entry): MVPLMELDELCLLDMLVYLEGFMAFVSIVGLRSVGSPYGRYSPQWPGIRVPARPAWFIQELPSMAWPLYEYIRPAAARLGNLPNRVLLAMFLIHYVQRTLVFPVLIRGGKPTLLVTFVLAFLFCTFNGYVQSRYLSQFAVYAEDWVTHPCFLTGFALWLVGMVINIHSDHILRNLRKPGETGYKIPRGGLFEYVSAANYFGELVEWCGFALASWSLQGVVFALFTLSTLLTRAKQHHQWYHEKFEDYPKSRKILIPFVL
T1 sequence (P31214 whole entry): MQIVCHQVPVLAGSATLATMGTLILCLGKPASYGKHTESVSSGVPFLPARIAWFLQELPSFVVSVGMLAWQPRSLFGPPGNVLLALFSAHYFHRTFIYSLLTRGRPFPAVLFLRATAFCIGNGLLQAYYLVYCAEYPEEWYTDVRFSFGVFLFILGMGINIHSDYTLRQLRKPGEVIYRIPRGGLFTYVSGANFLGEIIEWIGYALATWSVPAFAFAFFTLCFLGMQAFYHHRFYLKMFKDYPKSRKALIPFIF
The experiment in a line: Ability to inhibit Steroid 5-alpha-reductase in rat using Enzyme kinetics method.

The target of assay [2] is T1, Steroid 5-alpha-reductase. The experiment in a line: Ability to inhibit Steroid 5-alpha-reductase in rat using Isotope method [3H]T to [3H]-DHT].

Consider `CC(C)(C)NC(=O)[C@H]1CC[C@H]2[C@@H]3CC[C@H]4NC(=O)C=C[C@]4(C)[C@H]3CC[C@]12C` [FINASTERIDE], for which the Ki in assay [1] was found to be 54.7 nM; in assay [2], 88.2 nM.
For the compound `CC(C)(C)NC(=O)[C@H]1CCC2C3CC=C4C=C(C#Cc5ccccc5)CC[C@]4(C)C3CC[C@@]21C` (some centres not stated), the Ki in assay [1] was 45.8 nM; in assay [2], 100.2 nM.
The like results for `CCOP(=O)(OCC)C1=CC2=CCC3C(CC[C@@]4(C)C3CC[C@@H]4C(=O)NC(C)(C)C)[C@@]2(C)CC1` (some centres not stated) were, in that order, 18.1 nM and 68.5 nM.
The like results for `CCN(CC)C(=O)C1=CC2=CCC3C(CC[C@@]4(C)C3CC[C@@H]4C(=O)NC(C)(C)C)[C@@]2(C)CC1` (some centres not stated) were, in that order, >> 1000 nM and >> 1000 nM.
As for `CC(=O)C1=CC2=CCC3C(CC[C@@]4(C)C3CC[C@@H]4C(=O)NC(C)(C)C)[C@@]2(C)CC1` (some centres not stated), the Ki in assay [1] and in assay [2] was >> 1000 nM in each case.
In the case of `CC(C)(C)NC(=O)[C@H]1CCC2C3CC=C4C=CCC[C@]4(C)C3CC[C@@]21C` (some centres not stated), the inhibitory constant (Ki) in assay [1] and in assay [2] was >> 1000 nM throughout.
